From US20070043070A1, “Weak base salts” (priority 2000, published 2007)
Entries after “also recorded” stand apart in the source; their conditions may differ. Where a name gives a salt, the structure may show the parent alone. Read-outs that look alike come from different tables or passages of the source. Marks after values point to notes of the source that are not given here.

Experiments:
[1] = cited from earlier work; for pKa: weak base compounds
[2] = Dissolution studies in 0.1N hydrochloric acid; format: physicochemical; conditions: for t60% (time for dissolution of 60% of given amount): pH 1, amount equivalent to 50 mg carbendazim
Method: A weighed amount of salt (so as to have 50 mg of carbendazim) was triturated to provide a uniform particle size and was suspended in the dissolution media. The volume of dissolution media was 250 ml, and the stirring rate was maintained at 250 rpm. One ml aliquot samples filtered through a 0.45 μm Millipore filter were withdrawn at 1, 5, 10, 15, 20, 30, 45, and 60 min, respectively. One ml of the dissolution medium was added to the dissolution vessel after each sampling period to maintain constant volume. The samples were then analyzed by HPLC.

[3] = Dissolution studies in Millipore water; format: physicochemical; conditions: for completeness of dissolution: 60 min; for t40% (time for dissolution of 40% of given amount): water, amount equivalent to 50 mg carbendazim; for dissolution compared, in words: dissolution profiles
[4] = Solubility determination of carbendazim salts in water (HPLC); conditions: for pH: saturated solution in water, Table 13; for PHmax: pH below which solubility plateaus or decreases (solution saturated with respect to salt)
Method: These were mixed by end-to-end rotation. Each sample was then filtered through a 0.45 μm PVDF filter. The filterate was collected in two or more fractions, which were analyzed separately by HPLC to ensure that there were no misleading solubility measurements resulting from adsorption onto the filter. Filter adsorption was assumed to be negligible when the concentration of successive fractions agreed within ±5%. The composition of the residual solid was examined to ensure that at least some of the solid phase that was in equilibrium with the solution was indeed the salt.
The Ksp determinations were generally calculated directly from the observed carbendazim concentration once it was established that the residual solid phase contained excess salt. Since […] results in the neutralization of an equivalent amount of counterion to its free base form, the same procedure could be used to calculate Ksp in systems where free acid precipitation occurred prior to saturation of the system with the given salt.
A Beckman Gold HPLC system equipped with a model no. 168 detector at 280 nm was used for all assays. […] The flow rate was controlled at 0.8 ml/min, with carbendazim's retention time at 3.5 min. The injection volume was 20 μL. The evaluation of the assay was conducted by using carbendazim standard solutions at concentrations ranging from 0.1 μg/ml to 100 μg/ml.

[5] = Moisture sorption studies (desiccators at 43% and 81% RH, 25° C., 8 days; PXRD of the solid afterwards); format: physicochemical; conditions: for Hygroscopicity: gain of moisture: hygrostat for 8 days at 43% RH; for PXRD pattern / solid state form after storage / moisture adsorbed: 8 days; for hygroscopicity in words: 43 and 81% RH; for moisture adsorbed: 25° C.
Method: The PXRD patterns of different salts of carbendazim were determined at ambient temperature and atmosphere using a Philips PM 990/100 diffractometer (Philips, The Netherlands). The x-ray generator (PW3373/00 Cu LFF DK119706) has a copper radiation source which generates a voltage of 50 kV, and a current of 40 mA. Counts were measured using a X'Celerator detector which is based on real time multiple strip (RTMS) technology. Samples were packed into zero background silicon sample holders, and precautions were used to avoid introducing preferred orientation of the crystallites. The samples were subjected to a spinning movement having a rotation time of 4 s. The samples were scanned with the diffraction angle, 2θ, increasing from 3° to 63°, with a step size of 0.0167° and a counting time of 15.24 s. The XRD pattern traces of samples (salts subjected to moisture sorption or stability) were compared with regard to peak position and relative intensity, peak shifting, and the presence or lack of peaks in certain angular regions.
The moisture sorption of the various salts was determined by exposing weighed amounts (˜2 to 3 mg) of salts in a 4 ml glass vial, which was placed in sealed desiccators containing saturated salt solutions. Saturated salt solutions that give defined relative humidities (as a function of temperature) have been reported in various handbooks containing physical and chemical data.
The current study was performed at 25° C. with relative humidity values of 43% (saturated solution of potassium carbonate) and 81% (saturated solution of potassium bromide). The samples were stored in desiccators of known relative humidity for 8 days, following which they were re-weighed to calculate the % weight change. The solid phases were then analyzed using PXRD to ascertain the effect of the moisture content.

[6] = Dehydration kinetics by TGA (Flynn and Wall method); format: physicochemical; conditions: TGA heating rates 5-15° C. per minute
Method: TGA traces were recorded with a TA Instruments TGA Q-50 (TA Instruments, New Castle, Del.). The sample weight was approximately 2-4 mg, and heating rates of 2-15° C./min under nitrogen gas flow of 60 ml/min were used.
The dehydration kinetics of carbendazim hydrochloride dihydrate was studied by subjecting the crystals to TGA heating rates of 5, 7, 10, 12, and 15° C. per minute. The activation energy (Ea) for the dehydration process was calculated from these TGA data according to the method described by Flynn and Wall (J. H. Flynn and L. A. Wall, J. Research Nat. Bur. Standards A, Phys. Chem. A71, 25 (1967); J. Polym. Sci., Pol. Left. 5, 191 (1967); J. Polym. Sci., Pol. Lett. 4, 323 (1966)). This method involves the analysis of weight loss versus temperature at different heating rates (β) to determine the corresponding absolute temperatures at a constant weight loss (C). Graphs of negative logarithm of heating rates (expressed in ° C./s) (−log β) versus 1/T were plotted (FIG. 8) and the activation energy calculated from the slope of the curves. The activation energy for the dehydration of the hydrochloride salt, calculated from the TGA data, was ˜64 kJ/mol.

## Cc1cc(-c2nc3ccccc3s2)ccc1N [AMPB]
[1]
  pKa: 4

## Cc1cc(NC(=O)NC(=O)c2ccccc2N(C)C)ccc1Oc1ncc(Br)cn1 [BPU NSC 639829]
[1]
  pKa: ˜5

## O=S(=O)(O)c1ccccc1 [Benzenesulfonic acid]
[1]; acids used as counter-ions, Table 1
  Pka1: 0.7

## CCCCOC(=O)c1ccc(N)cc1 [Butamben]
[1]
  pKa: 5.4

## CN/C(=N\CCSCc1nc[nH]c1C)NC#N [Cimetadine]
[1]
  pKa: 6.8

## COC(=O)Nc1nc2ccccc2[nH]1 [Free Base, carbendazim, reference compound]
[2]; 0.1N HCl
  completeness of dissolution: completely soluble
[2]
  t60% (time for dissolution of 60% of given amount): 5 min
[3]; Millipore water, after 60 min
  dissolved fraction of the initial dose: less than 1%
[4]
  S (aqueous solubility): 6 µg/mL
  Sw: 0.006 mg/mL
  pH of saturated sol.: 5.90
[5]
  Hygroscopicity: gain of moisture: Gain 0.36%

## CC(=O)O.CCCCCCCCCCCCCCCCCC1=NCCN1 [Glyodin]
[1]
  pKa: ˜7

## COC(=O)Nc1nc2ccccc2[nH]1 [Hydrochloride, carbendazim hydrochloride]
[6]
  activation energy for the dehydration: ~15.3 kcal/mol
[2]; hydrochloride
  t60% (time for dissolution of 60% of given amount): 2 to 3 min
[3]; Millipore water
  completeness of dissolution: did not completely dissolve
[3]
  t40% (time for dissolution of 40% of given amount): ˜5 min
[4]
  S (aqueous solubility): 6080 µg/mL
  Sw: 6.080 mg/mL
  pH of saturated sol.: 1.68
[4]; 25° C.
  pH: 1.68
[5]; 43% RH
  PXRD pattern / solid state form after storage: remained unchanged
[5]
  hygroscopicity in words: minimally hygroscopic
[5]; 81% RH
  PXRD pattern / solid state form after storage: remained unchanged
[5]; hydrochloride
  Hygroscopicity: gain of moisture: Gain 0.13%

## Clc1ccc(COC(Cn2ccnc2)c2ccc(Cl)cc2Cl)c(Cl)c1 (stereo not shown) [Miconazole]
[1]
  pKa: 6.7

## CCN(CC)C(=O)c1cccnc1 [Nikethamide]
[1]
  pKa: 3.5

## carbendazim besylate
[2]
  t60% (time for dissolution of 60% of given amount): 2 to 3 min
[3]; Millipore water
  completeness of dissolution: did not completely dissolve
[3]
  t40% (time for dissolution of 40% of given amount): ˜5 min
[4]; Table 14
  pH of saturated sol.: 1.76
[4]
  PHmax: 1.65
[4]; 25° C.
  pH: 1.76
[4]; water, 25° C.
  S (aqueous solubility): 6992 µg/mL
[4]; water, Table 14
  Sw: 6.992 mg/mL
[5]; 43% RH
  PXRD pattern / solid state form after storage: remained unchanged
[5]; 81% RH
  moisture adsorbed: approximately 4.3%
  PXRD pattern / solid state form after storage: remained unchanged
[5]
  Hygroscopicity: gain of moisture: Gain 0.18%

## carbendazim hemisulfate monohydrate
[2]
  t60% (time for dissolution of 60% of given amount): 2 to 3 min
[3]; Millipore water
  completeness of dissolution: did not completely dissolve
[3]
  t40% (time for dissolution of 40% of given amount): ˜3 min
[5]; 43% RH
  PXRD pattern / solid state form after storage: remained unchanged
[5]
  hygroscopicity in words: minimally hygroscopic
  Hygroscopicity: gain of moisture: Gain 0.38%
[5]; 81% RH
  PXRD pattern / solid state form after storage: remained unchanged

## carbendazim mesylate
[2]; 0.1N HCl, pH 1.1
  time for dissolving 100% of sample: instanteously soluble
[2]
  t60% (time for dissolution of 60% of given amount): 1 min
[3]; Millipore water
  time to complete dissolution: ≤ 30 min
  dissolution compared, in words: dissolved the fastest; also recorded: best dissolution time
[3]
  t40% (time for dissolution of 40% of given amount): <1 min
[4]; Table 14
  pH of saturated sol.: 0.80
[4]; 25° C.
  pH: 0.8
[4]; water, 25° C.
  S (aqueous solubility): > 205662 µg/mL
[4]; water, 25° C., listed as mesylate
  S (aqueous solubility): > 200000 µg/mL
[4]; water, Table 14
  Sw: >205.662* mg/ml
[5]; 43% RH
  PXRD pattern / solid state form after storage: moisture, same
[5]
  hygroscopicity in words: highly hygroscopic
  Hygroscopicity: gain of moisture: Gain 2.04%
[5]; 81% RH
  moisture adsorbed: 10.1%
  PXRD pattern / solid state form after storage: showed changes in their PXRD patterns

## carbendazim phosphate
[2]
  t60% (time for dissolution of 60% of given amount): 2 to 3 min
[3]; Millipore water
  completeness of dissolution: did not completely dissolve
  dissolution compared, in words: better dissolution than the 1:1 physical mixture
[3]
  t40% (time for dissolution of 40% of given amount): ˜5 min
[5]; 43% RH
  PXRD pattern / solid state form after storage: changed.
[5]; 43% RH, listed as phosphate
  PXRD pattern / solid state form after storage: loses intensity in 28 0 2E reflection
[5]; 43% RH, listed as phosphate salt
  PXRD pattern / solid state form after storage: change form
[5]
  hygroscopicity in words: highly hygroscopic
  Hygroscopicity: gain of moisture: Gain 0.88%
[5]; 81% RH
  moisture adsorbed: 7.5%
  PXRD pattern / solid state form after storage: showed changes in their PXRD patterns

## carbendazim tosylate
[2]
  t60% (time for dissolution of 60% of given amount): 2 to 3 min
[3]; Millipore water
  completeness of dissolution: did not completely dissolve
[3]
  t40% (time for dissolution of 40% of given amount): ˜5 min
[4]; Table 14
  pH of saturated sol.: 1.93
[4]; calculated after correcting for common ion effect
  Ksp: 4.1 × 10^−4 M^2
[4]
  PHmax: 1.82
[4]; 25° C.
  pH: 1.93
[4]; water, 25° C.
  S (aqueous solubility): 4815 µg/mL
[4]; water, Table 14
  Sw: 4.815 mg/mL
[5]; 43% RH
  PXRD pattern / solid state form after storage: remained unchanged
[5]; 81% RH
  moisture adsorbed: approximately 4.3%
  PXRD pattern / solid state form after storage: remained unchanged
[5]
  Hygroscopicity: gain of moisture: Gain 0.27%
